Reference: the supplement of paper PMC11208160

Assay: recombinant barcode read abundance after kanamycin selection (control-corrected) (log10(CPM+1)); higher = more efficient recombination; sequences stand for … in AGTGCAGAGAAAATCGGCCAGTTTTCTCTGCCTGCAGTCCGCATGCCGT…AGATTTATGCAGCGGACTGCCTTTCTCCCAAAGTGATAAACCGGACAGTATCATGGACCGGTTTTCCCGGTAATCCGTATTTGCAAGGTTGGTTTCACT; site = the 11-nt target
Method in brief: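 Recombination efficiency was calculated from barcode counts at recombinant junctions, normalized to counts per million, averaged and corrected by the control. Each value is given as log10(CPM+1). The constructs were Gibson-cloned oligos (promoter, target, barcode, J23119-driven first 104 bridge RNA bases) in a vector with the remaining 73 bp and a T7-inducible recombinase, co-electroporated into E. coli with a donor plasmid and plated in duplicate on chloramphenicol/ampicillin LB agar (control) or chloramphenicol/ampicillin/kanamycin with 0.1 mM IPTG.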
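Further: IS621 recombinase and bridge RNA in Escherichia coli cells.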

With “CTCGGATCTTGGGTTCTAACCTGTTGCCT (site CTCGGAGCTAG)” the “recombinant barcode read abundance (log10)” value was 0.0938.
For “CTCGGATCTTGGGTTCTAACCTGTTGCCT (site CTCGGATCTAG)”, the “recombinant barcode read abundance (log10)” value was 1.3.
With “CTCGGATCTTGGGTTCTAACCTGTTGCTA (site CTCGGATCTAA)” the “recombinant barcode read abundance (log10)” value was 0.135.
For “CTCGGATCTTGGGTTCTAACCTGTTGCTA (site CTCGGATCTCA)”, the “recombinant barcode read abundance (log10)” value was 0.15.
With “CTCGGATCTTGGGTTCTAACCTGTTGCTA (site CTCGGATCTGA)” the “recombinant barcode read abundance (log10)” value was 0.0177.
For “CTCGGATCTTGGGTTCTAACCTGTTGCTA (site CTCGGATCTTA)”, the “recombinant barcode read abundance (log10)” value was 0.67.
In the case of “CTCGGATCTTGGGTTCTAACCTGTTGCTC (site CTCGGATCTAA)”, the “recombinant barcode read abundance (log10)” value is reported as 0.
In the case of “CTCGGATCTTGGGTTCTAACCTGTTGCTC (site CTCGGATCTCA)”, the “recombinant barcode read abundance (log10)” value is reported as 0.0519.
For “CTCGGATCTTGGGTTCTAACCTGTTGCTC (site CTCGGATCTGA)”, the “recombinant barcode read abundance (log10)” value was 0.991.
For “CTCGGATCTTGGGTTCTAACCTGTTGCTC (site CTCGGATCTTA)”, the “recombinant barcode read abundance (log10)” value was 0.138.
With “CTCGGATCTTGGGTTCTAACCTGTTGCTG (site CTCGGATCTAA)” the “recombinant barcode read abundance (log10)” value was 0.296.
In the case of “CTCGGATCTTGGGTTCTAACCTGTTGCTG (site CTCGGATCTCA)”, the “recombinant barcode read abundance (log10)” value is reported as 1.08.
With “CTCGGATCTTGGGTTCTAACCTGTTGCTG (site CTCGGATCTGA)” the “recombinant barcode read abundance (log10)” value was 0.
With “CTCGGATCTTGGGTTCTAACCTGTTGCTG (site CTCGGATCTTA)” the “recombinant barcode read abundance (log10)” value was 0.133.
For “CTCGTACCTTGGGTTCTAACCTGTTGCGG (site CTCGTACCTCC)”, the “recombinant barcode read abundance (log10)” value was 2.52.
For “CTCGTACCTTGGGTTCTAACCTGTTGCGG (site CTCGTAGCTCC)”, the “recombinant barcode read abundance (log10)” value was 0.0696.
In the case of “CTCGTAGCTTGGGTTCTAACCTGTTGCCT (site AGTAGTTCTCT)”, the “recombinant barcode read abundance (log10)” value is reported as 0.223.
With “CTCGTAGCTTGGGTTCTAACCTGTTGCCT (site CTCGTAGCTAG)” the “recombinant barcode read abundance (log10)” value was 0.651.
With “CTCGTAGCTTGGGTTCTAACCTGTTGCGG (site CTCGTACCTCC)” the “recombinant barcode read abundance (log10)” value was 0.0414.
In the case of “CTCGTAGCTTGGGTTCTAACCTGTTGCGG (site CTCGTAGCTCC)”, the “recombinant barcode read abundance (log10)” value is reported as 1.23.
For “CTCGTCACTTGGGTTCTAACCTGTTGCCT (site CTCGTAACTAG)”, the “recombinant barcode read abundance (log10)” value was 0.106.
For “CTCGTCACTTGGGTTCTAACCTGTTGCCT (site CTCGTCACTAG)”, the “recombinant barcode read abundance (log10)” value was 1.91.
For “CTCGTCACTTGGGTTCTAACCTGTTGCCT (site CTCGTGACTAG)”, the “recombinant barcode read abundance (log10)” value was 0.0882.
With “CTCGTCACTTGGGTTCTAACCTGTTGCCT (site CTCGTTACTAG)” the “recombinant barcode read abundance (log10)” value was 0.0923.
With “CTCGTGACTTGGGTTCTAACCTGTTGCCT (site CTCGTAACTAG)” the “recombinant barcode read abundance (log10)” value was 0.682.
In the case of “CTCGTGACTTGGGTTCTAACCTGTTGCCT (site CTCGTCACTAG)”, the “recombinant barcode read abundance (log10)” value is reported as 0.
With “CTCGTGACTTGGGTTCTAACCTGTTGCCT (site CTCGTGACTAG)” the “recombinant barcode read abundance (log10)” value was 1.13.
For “CTCGTGACTTGGGTTCTAACCTGTTGCCT (site CTCGTTACTAG)”, the “recombinant barcode read abundance (log10)” value was 0.335.
In the case of “CTCTAAACTTGGGTTCTAACCTGTTGCCA (site CTCTAAACTTG)”, the “recombinant barcode read abundance (log10)” value is reported as 0.106.
In the case of “CTCTAAACTTGGGTTCTAACCTGTTGCCA (site CTCTACACTTG)”, the “recombinant barcode read abundance (log10)” value is reported as 0.671.
With “CTCTAAACTTGGGTTCTAACCTGTTGCCA (site CTCTAGACTTG)” the “recombinant barcode read abundance (log10)” value was 0.108.
In the case of “CTCTAAACTTGGGTTCTAACCTGTTGCCA (site CTCTATACTTG)”, the “recombinant barcode read abundance (log10)” value is reported as 0.0391.
In the case of “CTCTAAACTTGGGTTCTAACCTGTTGCGA (site CTCTAAACTTC)”, the “recombinant barcode read abundance (log10)” value is reported as 0.919.
In the case of “CTCTAAACTTGGGTTCTAACCTGTTGCGA (site CTCTCAGCTTC)”, the “recombinant barcode read abundance (log10)” value is reported as 0.0639.
For “CTCTAACCTTGGGTTCTAACCTGTTGCGT (site CTCTAACCTAC)”, the “recombinant barcode read abundance (log10)” value was 1.45.
In the case of “CTCTAACCTTGGGTTCTAACCTGTTGCGT (site CTCTACCCTAC)”, the “recombinant barcode read abundance (log10)” value is reported as 0.0519.
For “CTCTAACCTTGGGTTCTAACCTGTTGCGT (site CTCTAGCCTAC)”, the “recombinant barcode read abundance (log10)” value was 0.413.
With “CTCTAACCTTGGGTTCTAACCTGTTGCGT (site CTCTATCCTAC)” the “recombinant barcode read abundance (log10)” value was 0.0249.
For “CTCTAGACTTGGGTTCTAACCTGTTGCCT (site CTATAGACTTG)”, the “recombinant barcode read abundance (log10)” value was 0.00655.
In the case of “CTCTAGACTTGGGTTCTAACCTGTTGCCT (site CTCTAGACTAG)”, the “recombinant barcode read abundance (log10)” value is reported as 0.0941.
For “CTCTAGCCTTGGGTTCTAACCTGTTGCAT (site CTCTAGCCTAT)”, the “recombinant barcode read abundance (log10)” value was 0.505.
In the case of “CTCTAGCCTTGGGTTCTAACCTGTTGCAT (site GTCCAGCCTAT)”, the “recombinant barcode read abundance (log10)” value is reported as 0.
With “CTCTAGTCTTGGGTTCTAACCTGTTGCTT (site CTCTAGTCTAA)” the “recombinant barcode read abundance (log10)” value was 0.748.
With “CTCTAGTCTTGGGTTCTAACCTGTTGCTT (site CTCTAGTCTAC)” the “recombinant barcode read abundance (log10)” value was 0.518.
In the case of “CTCTAGTCTTGGGTTCTAACCTGTTGCTT (site CTCTAGTCTAG)”, the “recombinant barcode read abundance (log10)” value is reported as 0.377.
For “CTCTAGTCTTGGGTTCTAACCTGTTGCTT (site CTCTAGTCTAT)”, the “recombinant barcode read abundance (log10)” value was 0.755.
In the case of “CTCTCCTCTTGGGTTCTAACCTGTTGCCT (site CTCTCCGCTAG)”, the “recombinant barcode read abundance (log10)” value is reported as 0.502.
In the case of “CTCTCCTCTTGGGTTCTAACCTGTTGCCT (site CTCTCCTCTAG)”, the “recombinant barcode read abundance (log10)” value is reported as 1.28.
With “CTCTCGTCTTGGGTTCTAACCTGTTGCTT (site CTCTCGTCTAA)” the “recombinant barcode read abundance (log10)” value was 0.2.
In the case of “CTCTCGTCTTGGGTTCTAACCTGTTGCTT (site CTCTCGTCTAC)”, the “recombinant barcode read abundance (log10)” value is reported as 0.517.
For “CTCTCGTCTTGGGTTCTAACCTGTTGCTT (site CTCTCGTCTAG)”, the “recombinant barcode read abundance (log10)” value was 0.107.
For “CTCTCGTCTTGGGTTCTAACCTGTTGCTT (site CTCTCGTCTAT)”, the “recombinant barcode read abundance (log10)” value was 0.091.
For “CTCTGTCCTTGGGTTCTAACCTGTTGCCA (site CTCTGTCCTTA)”, the “recombinant barcode read abundance (log10)” value was 0.0433.
With “CTCTGTCCTTGGGTTCTAACCTGTTGCCA (site CTCTGTCCTTG)” the “recombinant barcode read abundance (log10)” value was 0.545.
With “CTCTTAACTTGGGTTCTAACCTGTTGCGG (site AAGCATGCTTA)” the “recombinant barcode read abundance (log10)” value was 0.113.
In the case of “CTCTTAACTTGGGTTCTAACCTGTTGCGG (site CTCTTAACTCC)”, the “recombinant barcode read abundance (log10)” value is reported as 0.536.
In the case of “CTCTTAGCTTGGGTTCTAACCTGTTGCAA (site CTCTTAACTTA)”, the “recombinant barcode read abundance (log10)” value is reported as 0.0112.
With “CTCTTAGCTTGGGTTCTAACCTGTTGCAA (site CTCTTAGCTTT)” the “recombinant barcode read abundance (log10)” value was 0.0457.
With “CTCTTCACTTGGGTTCTAACCTGTTGCCG (site CTCTTCACTCG)” the “recombinant barcode read abundance (log10)” value was 0.998.
For “CTCTTCACTTGGGTTCTAACCTGTTGCCG (site CTCTTCGCTAG)”, the “recombinant barcode read abundance (log10)” value was 0.0289.
In the case of “CTGAGTTCTTGGGTTCTAACCTGTTGCCA (site CTGAGTCCTTG)”, the “recombinant barcode read abundance (log10)” value is reported as 0.269.
With “CTGAGTTCTTGGGTTCTAACCTGTTGCCA (site CTGAGTTCTTG)” the “recombinant barcode read abundance (log10)” value was 0.0274.
With “CTGATCCCTTGGGTTCTAACCTGTTGCGG (site CTGATCCCTCC)” the “recombinant barcode read abundance (log10)” value was 1.05.
With “CTGATCCCTTGGGTTCTAACCTGTTGCGG (site CTGCTCCCTCC)” the “recombinant barcode read abundance (log10)” value was 0.
In the case of “CTGATCCCTTGGGTTCTAACCTGTTGCGG (site CTGGTCCCTCC)”, the “recombinant barcode read abundance (log10)” value is reported as 0.136.
With “CTGATCCCTTGGGTTCTAACCTGTTGCGG (site CTGTTCCCTCC)” the “recombinant barcode read abundance (log10)” value was 0.0812.
For “CTGATTACTTGGGTTCTAACCTGTTGCCT (site CTGATAACTAG)”, the “recombinant barcode read abundance (log10)” value was 0.0337.
In the case of “CTGATTACTTGGGTTCTAACCTGTTGCCT (site CTGATCACTAG)”, the “recombinant barcode read abundance (log10)” value is reported as 0.0584.
For “CTGATTACTTGGGTTCTAACCTGTTGCCT (site CTGATGACTAG)”, the “recombinant barcode read abundance (log10)” value was 0.0346.
For “CTGATTACTTGGGTTCTAACCTGTTGCCT (site CTGATTACTAG)”, the “recombinant barcode read abundance (log10)” value was 0.21.
For “CTGCAAGCTTGGGTTCTAACCTGTTGCCT (site CTACAAGCTAG)”, the “recombinant barcode read abundance (log10)” value was 1.29.
For “CTGCAAGCTTGGGTTCTAACCTGTTGCCT (site CTCCAAGCTAG)”, the “recombinant barcode read abundance (log10)” value was 0.218.
With “CTGCAAGCTTGGGTTCTAACCTGTTGCCT (site CTGCAAGCTAG)” the “recombinant barcode read abundance (log10)” value was 0.995.
With “CTGCAAGCTTGGGTTCTAACCTGTTGCCT (site CTTCAAGCTAG)” the “recombinant barcode read abundance (log10)” value was 0.854.
In the case of “CTGGACCCTTGGGTTCTAACCTGTTGCCG (site CTGGACCCTCG)”, the “recombinant barcode read abundance (log10)” value is reported as 1.91.
For “CTGGACCCTTGGGTTCTAACCTGTTGCCG (site GATTCGACTAC)”, the “recombinant barcode read abundance (log10)” value was 0.0386.
For “CTGGCAGCTTGGGTTCTAACCTGTTGCCT (site ACAAACCCTTA)”, the “recombinant barcode read abundance (log10)” value was 0.241.
In the case of “CTGGCAGCTTGGGTTCTAACCTGTTGCCT (site CTGGCAGCTAG)”, the “recombinant barcode read abundance (log10)” value is reported as 0.445.
For “CTGGCGCCTTGGGTTCTAACCTGTTGCAT (site CTGGCGCCTAT)”, the “recombinant barcode read abundance (log10)” value was 0.908.
In the case of “CTGGCGCCTTGGGTTCTAACCTGTTGCAT (site TCTCGAGCTTC)”, the “recombinant barcode read abundance (log10)” value is reported as 0.0909.
For “CTGGCTCCTTGGGTTCTAACCTGTTGCTT (site CTGGCTCCTAA)”, the “recombinant barcode read abundance (log10)” value was 0.227.
For “CTGGCTCCTTGGGTTCTAACCTGTTGCTT (site CTGGTTCCTAG)”, the “recombinant barcode read abundance (log10)” value was 0.0218.
In the case of “CTGGGGTCTTGGGTTCTAACCTGTTGCTT (site CTGGGGTCTAA)”, the “recombinant barcode read abundance (log10)” value is reported as 2.43.
With “CTGGGGTCTTGGGTTCTAACCTGTTGCTT (site GACTAAGCTCC)” the “recombinant barcode read abundance (log10)” value was 0.105.
With “CTGGTGCCTTGGGTTCTAACCTGTTGCCT (site CAGGTGCCTAG)” the “recombinant barcode read abundance (log10)” value was 0.808.
With “CTGGTGCCTTGGGTTCTAACCTGTTGCCT (site CCGGTGCCTAG)” the “recombinant barcode read abundance (log10)” value was 0.116.
